Measured values taken from US20040198663A1, “Method of treating cardiac ischemia by using erythropoietin” (priority 2003, published 2004).
Entries after “also recorded” stand apart in the source; their conditions may differ. Blank lines part the entries; values can stand above or below the compound they belong to.

Test system: hearts from normoxic rabbits
Test: Mechanism studies: inhibitors/blockers perfused alone, then with erythropoietin, before global ischemia
Design: species or system New Zealand White rabbit
Settings: for effect of protein kinase inhibitor on the cardioprotective effect of erythropoietin: inhibitor 15 min alone, then 15 min with erythropoietin 1.0 U/ml prior to ischemia
Protocol: Resistance to myocardial ischemia. Hearts from infant rabbits were perfused with bicarbonate buffer, and biventricular function was monitored continuously throughout each experiment as described in Rafiee et al., Circulation 106:239-45 (2002). For concentration response studies, hearts were then perfused with erythropoietin (0.5-10.0 U/ml) for 15 minutes prior to 30 minutes ischemia and 35 minutes reperfusion. For mechanism studies with protein kinase inhibitors, potassium channel blockers or nitric oxide synthase inhibitors, hearts were perfused with drugs for 15 minutes alone followed by 15 minutes in combination with erythropoietin prior to ischemia. Hearts perfused with protein kinase inhibitors or potassium channel blockers alone in the absence of erythropoietin for 30 minutes prior to ischemia served as untreated controls for these studies. Recovery of post-ischemic left and right ventricular developed pressure was expressed as a percentage of its pre-drug, pre-ischemic value.
Hearts from normoxic rabbits were perfused with protein kinase inhibitors alone for 15 minutes and then combined with erythropoietin for a further 15 minute period prior to ischemia.
Hearts were perfused with KATP channel blockers alone for 15 minutes and then in combination with erythropoietin (1.0 U/ml) for another 15-minute period prior to ischemia.
Hearts were perfused with Paxilline (1 μM), a blocker of the KCa channel, alone for 15 minutes and then in combination with erythropoietin (1.0 U/ml) for another 15-minute period prior to ischemia.
Hearts from normoxic rabbits were perfused with nitric oxide synthase inhibitors combined with erythropoietin (1.0 U/ml) for 15 minutes prior to ischemia.

Compound: C[S+]([O-])c1ccc(-c2nc(-c3ccncc3)c(-c3ccc(F)cc3)[nH]2)cc1 (centres unmarked) [SB203580]
effect of protein kinase inhibitor on the cardioprotective effect of erythropoietin: abolished

Compound: CNC(=N)NCCC[C@H](N)C(=O)O [L-NMA]
effect on the cardioprotective effect of erythropoietin (L-NMA 100 μM combined with erythropoietin 1.0 U/ml for 15 minutes): did not block

Compound: COc1ccc(Cl)cc1C(=O)NCCc1ccc(S(=O)(=O)NC(=O)NC2CCCCC2)cc1 [Glibenclamide]
effect on the cardioprotective effect of erythropoietin (glibenclamide 3 μM, 15 min alone then 15 min with erythropoietin 1.0 U/ml): completely abolished | effect on the cardioprotective effect of erythropoietin (glibenclamide 3 μM, 15 min alone then 15 min with erythropoietin 1.0 U/ml, listed as glibenclamide): abolished; also recorded: completely prevented

Compound: COc1ccc2c(c[n+](C)c3c4cc5c(cc4ccc23)OCO5)c1OC [chelerythrine]
effect of protein kinase inhibitor on the cardioprotective effect of erythropoietin: abolished

Compound: CCCCCC(O)CCCC(=O)O (centres unmarked) [5-hydroxydecanoate]
effect on the cardioprotective effect of erythropoietin (5-hydroxydecanoate 300 μM, 15 min alone then 15 min with erythropoietin 1.0 U/ml): partially | effect on the cardioprotective effect of erythropoietin (5-hydroxydecanoate 300 μM, 15 min alone then 15 min with erythropoietin 1.0 U/ml, listed as 5-HD): abolished; also recorded: only partially prevented

effect of protein kinase inhibitor on the cardioprotective effect of erythropoietin: abolished
Compound: COc1cccc(-c2cc(=O)c3ccccc3o2)c1N [PD98059]

Compound: CC(C)(O)[C@H]1O[C@H]2CC[C@@]3(C)[C@@](O)(CC[C@H]4Cc5c([nH]c6ccccc56)[C@@]43C)C2=CC1=O [Paxilline]
effect on untreated hearts (Paxilline 1 μM alone, no erythropoietin): no effect

Compound: CNC(=S)NS(=O)(=O)c1cc(CCNC(=O)c2cc(Cl)ccc2OC)ccc1OC [HMR 1098]
effect on the cardioprotective effect of erythropoietin (HMR 1098 30 μM, 15 min alone then 15 min with erythropoietin 1.0 U/ml): abolished; also recorded: completely prevented; also recorded: completely blocked

Compound: COC(=O)[C@@H](N)CCCNC(=N)N[N+](=O)[O-] [L-NAME]
effect on the cardioprotective effect of erythropoietin (L-NAME 200 μM combined with erythropoietin 1.0 U/ml for 15 minutes): did not block
